Experimental data from patent US10336792B2, “Antimicrobial peptide dendrimers” (priority 2014, dated 2019).
In brackets after ≈: the same amount, converted by molar mass. Read-outs that look alike come from different tables or passages of the source. Positions of bridges follow the written chain, without caps; N, C: chain ends. Non-standard residues stand in square brackets, D forms with d. Residues, ends and D or L forms follow the SMILES beside them. Groups on a side chain read outwards from the residue. Chains are numbered I, II in the order given. *: point of attachment. LeuLys(Leu) = CC(C)C[C@H](N)C(=O)NCCCC[C@H](NC(=O)[C@@H](N)CC(C)C)C(=O)*; X2 = NCCCC[C@H](N)C(=O)NCCCC[C@H](NC(=O)[C@@H](N)CCCCN)C(=O)*; X1 = CCCCCCCCCCCCCCCCCCCCCCCC(=O)*; Dab = NCC[C@H](N)C(=O)O

What was measured:
Type in all cases: cell-based
[1] = test system: Pseudomonas aeruginosa (strain PA01); experiment: microbe, parasite or virus in culture; conditions: strain
In short: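 P. aeruginosa PAO1 grown overnight in LB, diluted to OD600 0.001 and mixed with ⅔-step peptide dilutions, then incubated at 37 °C for 18–24 h. After MTT staining, the lowest concentration with no visible growth was read by eye as the MIC.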

[2] = test system: Bacillus subtilis (strain BR151)
Experimental: (§1) Antimicrobial activity was assayed against Bacillus subtilis (strain BR151), Escherichia coli (strain DH5α) and Pseudomonas aeruginosa (strain PA01). Microdilution broth method was used to determine the minimal inhibitory concentration (MIC). A colony of bacteria was grown in LB-medium overnight at 37° C. The concentration was quantified by measuring absorbance at 600 nm and diluted to OD600=0.1 (1×10^8 CFU/mL). The samples were prepared as stock solutions of 1 mg mL^−1 in H2O and diluted serially by ⅔ in nutrient LB in a 96-well microtiterplate (Cornstar, polypropylene, untreated). The sample solutions (50 μL) were mixed with the diluted bacterial suspension with an OD600 nm of 0.001 (50 μL). […] The plates were incubated at 37° C. until satisfactory growth (18-24 h). For each test, two columns of the plate were kept for sterility control (SC, broth only) and growth control (GC, broth with bacterial inoculums, no antibiotics). 10 μL of a solution of MTT (0.1% in H2O) was added to each well. The minimal inhibitory concentration (MIC) was defined as the lowest concentration of the antimicrobial substance (peptide dendrimer) that inhibited visible growth of the tested bacteria (yellow) with the unaided eye. For microbiological study the linear peptide LysTyrLysLysAlaLeuLysLysLeuAlaLysLeuLeu (SEQ ID No. 1) was used as reference.
(§2) The AMPD library was tested for their antimicrobial activity against B. subtilis BR151, a Gram-positive bacterium and E. coli DH5α, another Gram-negative bacterium, to cover a broader spectrum of different bacteria. […] Therefore no explicit SAR can be established, but clearly the hydrophobic amino acids Ala and Tyr seem to have a significant influence in reducing activity.

[3] = test system: Escherichia coli (strain DH5α)
Experimental: as §1, §2

Compound	MIC P. aeruginosa PAO1 [1] [µg/mL]	MIC B. subtilis BR151 ([2]; strain BR151) [µg/mL]	MIC E. coli DH5α ([3]; DH5α) [µg/mL]	MIC B. subtilis BR151 ([2]; LB medium) [µg/mL]	MIC E. coli DH5α ([3]; LB medium) [µg/mL]
CC(C)C[C@H](NC(=O)[C@H](CCN)NC(=O)[C@H](CCCCNC(=O)[C@H](CC(C)C)NC(=O)[C@H](CCN)NC(=O)[C@H](CCCCNC(=O)[C@H](CC(C)C)NC(=O)[C@H](CCN)NC(=O)[C@H](CCCCNC(=O)[C@H](CC(C)C)NC(=O)[C@@H](N)CCN)NC(=O)[C@H](CC(C)C)NC(=O)[C@@H](N)CCN)NC(=O)[C@H](CC(C)C)NC(=O)[C@H](CCN)NC(=O)[C@H](CCCCNC(=O)[C@H](CC(C)C)NC(=O)[C@@H](N)CCN)NC(=O)[C@H](CC(C)C)NC(=O)[C@@H](N)CCN)NC(=O)[C@H](CC(C)C)NC(=O)[C@H](CCN)NC(=O)[C@H](CCCCNC(=O)[C@H](CC(C)C)NC(=O)[C@H](CCN)NC(=O)[C@H](CCCCNC(=O)[C@H](CC(C)C)NC(=O)[C@@H](N)CCN)NC(=O)[C@H](CC(C)C)NC(=O)[C@@H](N)CCN)NC(=O)[C@H](CC(C)C)NC(=O)[C@H](CCN)NC(=O)[C@H](CCCCNC(=O)[C@H](CC(C)C)NC(=O)[C@@H](N)CCN)NC(=O)[C@H](CC(C)C)NC(=O)[C@@H](N)CCN)C(N)=O [MSt-200, (DabL)8(KDabL)4(KDabL)2(KDabL)] (I: H-[Dab]LK([Leu-Dab])[Dab]LK[Dab]LK[Dab]L-NH2 / II: H-[Dab]LK([Leu-Dab])[Dab]LK[Dab]L / III: H-[Dab]LK([Leu-Dab])[Dab]L / IV: H-[Dab]LK([Leu-Dab])[Dab]L; amide I:6-IV:C, I:9-II:C, II:6-III:C; N-terminus assumed)	3 (≈ 0.729 µM)	2 (≈ 0.486 µM)	2 (≈ 0.486 µM)	–	–
CC(C)C[C@H](NC(=O)[C@H](CCCCNC(=O)[C@H](CC(C)C)NC(=O)[C@H](CCCCNC(=O)[C@H](CCCCN)NC(=O)[C@H](CCCCNC(=O)[C@@H](N)CCCCN)NC(=O)[C@@H](N)CCCCN)NC(=O)[C@H](CCCCN)NC(=O)[C@H](CCCCNC(=O)[C@@H](N)CCCCN)NC(=O)[C@@H](N)CCCCN)NC(=O)[C@H](CC(C)C)NC(=O)[C@H](CCCCNC(=O)[C@H](CCCCN)NC(=O)[C@H](CCCCNC(=O)[C@@H](N)CCCCN)NC(=O)[C@@H](N)CCCCN)NC(=O)[C@H](CCCCN)NC(=O)[C@H](CCCCNC(=O)[C@@H](N)CCCCN)NC(=O)[C@@H](N)CCCCN)C(N)=O [MSt-148, (K)8(KK)4(KL)2(KL)NH2] (I: H-KK(Lys)KK([Lys-X2])LKL-NH2 / II: H-KK(Lys)KK([Lys-X2])L; amide I:6-II:C; N-terminus assumed)	–	12 (≈ 4.3 µM)	>90	–	–
CC(C)C[C@H](NC(=O)[C@H](CCCCNC(=O)[C@@H](N)CC(C)C)NC(=O)[C@@H](N)CC(C)C)C(=O)NCCCC[C@H](NC(=O)[C@H](CC(C)C)NC(=O)[C@H](CCCCNC(=O)[C@@H](N)CC(C)C)NC(=O)[C@@H](N)CC(C)C)C(=O)N[C@@H](CCCCN)C(=O)NCCCC[C@H](NC(=O)[C@H](CCCCN)NC(=O)[C@H](CCCCNC(=O)[C@H](CC(C)C)NC(=O)[C@H](CCCCNC(=O)[C@@H](N)CC(C)C)NC(=O)[C@@H](N)CC(C)C)NC(=O)[C@H](CC(C)C)NC(=O)[C@H](CCCCNC(=O)[C@@H](N)CC(C)C)NC(=O)[C@@H](N)CC(C)C)C(=O)N[C@@H](CCCCN)C(N)=O [MSt-149, (L)8(KL)4(KK)2(KK)NH2] (I: H-LK(Leu)LK([Leu-LeuLys(Leu)])KKK-NH2 / II: H-LK(Leu)LK([Leu-LeuLys(Leu)])K; amide I:6-II:C; N-terminus assumed)	–	8 (≈ 3.01 µM)	>90	–	–
CCCCCCCCCCCCCCCCCCCCCCCC(=O)NCCCC[C@H](NC(=O)[C@H](CC(C)C)NC(=O)[C@H](CCCCN)NC(=O)[C@H](CCCCNC(=O)[C@H](CC(C)C)NC(=O)[C@H](CCCCN)NC(=O)[C@H](CCCCNC(=O)[C@H](CC(C)C)NC(=O)[C@@H](N)CCCCN)NC(=O)[C@H](CC(C)C)NC(=O)[C@@H](N)CCCCN)NC(=O)[C@H](CC(C)C)NC(=O)[C@H](CCCCN)NC(=O)[C@H](CCCCNC(=O)[C@H](CC(C)C)NC(=O)[C@@H](N)CCCCN)NC(=O)[C@H](CC(C)C)NC(=O)[C@@H](N)CCCCN)C(N)=O [MSt-287, (KL)4(KKL)2(KKLKC24)] (I: H-KLK([Leu-Lys])KLKKLK(X1)-NH2 / II: H-KLK([Leu-Lys])KL; amide I:6-II:C)	–	26 (≈ 10.1 µM)	13 (≈ 5.06 µM)	–	–
CC(C)C[C@H](NC(=O)[C@H](CC(C)C)NC(=O)[C@H](CCCCNC(=O)[C@H](CC(C)C)NC(=O)[C@H](CC(C)C)NC(=O)[C@H](CCCCNC(=O)[C@H](CCCCN)NC(=O)[C@H](CCCCN)NC(=O)[C@H](CCCCNC(=O)[C@H](CCCCN)NC(=O)[C@@H](N)CCCCN)NC(=O)[C@H](CCCCN)NC(=O)[C@@H](N)CCCCN)NC(=O)[C@H](CCCCN)NC(=O)[C@H](CCCCN)NC(=O)[C@H](CCCCNC(=O)[C@H](CCCCN)NC(=O)[C@@H](N)CCCCN)NC(=O)[C@H](CCCCN)NC(=O)[C@@H](N)CCCCN)NC(=O)[C@H](CC(C)C)NC(=O)[C@H](CC(C)C)NC(=O)[C@H](CCCCNC(=O)[C@H](CCCCN)NC(=O)[C@H](CCCCN)NC(=O)[C@H](CCCCNC(=O)[C@H](CCCCN)NC(=O)[C@@H](N)CCCCN)NC(=O)[C@H](CCCCN)NC(=O)[C@@H](N)CCCCN)NC(=O)[C@H](CCCCN)NC(=O)[C@H](CCCCN)NC(=O)[C@H](CCCCNC(=O)[C@H](CCCCN)NC(=O)[C@@H](N)CCCCN)NC(=O)[C@H](CCCCN)NC(=O)[C@@H](N)CCCCN)C(N)=O [MSt-140, (KK)8(KKK)4(KLL)2(KLL)] (I: H-KKK([Lys-Lys])KKKLLKLL-NH2 / II: H-KKK([Lys-Lys])KKKLL / III: H-KKK([Lys-Lys])KK / IV: H-KKK([Lys-Lys])KK; amide I:6-IV:C, I:9-II:C, II:6-III:C)	–	6 (≈ 1.28 µM)	>95	–	–
CC(C)C[C@H](NC(=O)[C@H](CCCCNC(=O)[C@H](CCCCN)NC(=O)[C@H](CC(C)C)NC(=O)[C@H](CCCCNC(=O)[C@H](CCCCN)NC(=O)[C@H](CC(C)C)NC(=O)[C@H](CCCCNC(=O)[C@H](CCCCN)NC(=O)[C@@H](N)CC(C)C)NC(=O)[C@H](CCCCN)NC(=O)[C@@H](N)CC(C)C)NC(=O)[C@H](CCCCN)NC(=O)[C@H](CC(C)C)NC(=O)[C@H](CCCCNC(=O)[C@H](CCCCN)NC(=O)[C@@H](N)CC(C)C)NC(=O)[C@H](CCCCN)NC(=O)[C@@H](N)CC(C)C)NC(=O)[C@H](CCCCN)NC(=O)[C@H](CC(C)C)NC(=O)[C@H](CCCCNC(=O)[C@H](CCCCN)NC(=O)[C@H](CC(C)C)NC(=O)[C@H](CCCCNC(=O)[C@H](CCCCN)NC(=O)[C@@H](N)CC(C)C)NC(=O)[C@H](CCCCN)NC(=O)[C@@H](N)CC(C)C)NC(=O)[C@H](CCCCN)NC(=O)[C@H](CC(C)C)NC(=O)[C@H](CCCCNC(=O)[C@H](CCCCN)NC(=O)[C@@H](N)CC(C)C)NC(=O)[C@H](CCCCN)NC(=O)[C@@H](N)CC(C)C)C(=O)N[C@@H](CCCCN)C(N)=O [MSt-199, (LK)8(KLK)4(KLK)2(KLK)] (I: H-LKK([Lys-Leu])LKKLKKLK-NH2 / II: H-LKK([Lys-Leu])LKKLK / III: H-LKK([Lys-Leu])LK / IV: H-LKK([Lys-Leu])LK; amide I:6-IV:C, I:9-II:C, II:6-III:C)	9 (≈ 1.98 µM)	3 (≈ 0.662 µM)	–	–	–
(KL)32(KKL)16(KKLCxKL)8(KKL)4(KKL)2KKL [CCS-15]	–	–	–	26	8
CC(C)C[C@H](NC(=O)[C@H](CCCCN)NC(=O)[C@H](CC(C)C)NC(=O)[C@H](CCCCN)NC(=O)[C@H](CC(C)C)NC(=O)[C@H](CCCCN)NC(=O)[C@H](CC(C)C)NC(=O)[C@H](CCCCN)NC(=O)[C@H](CC(C)C)NC(=O)[C@H](CCCCN)NC(=O)[C@H](CC(C)C)NC(=O)[C@H](CCCCN)NC(=O)[C@H](CC(C)C)NC(=O)[C@@H](N)CCCCN)C(N)=O [MSt-117, KLKLKLKLKLKLKL, reference compound] (H-KLKLKLKLKLKLKL-NH2)	–	14 (≈ 8.2 µM)	13 (≈ 7.62 µM)	–	–
